Measured values from PMC5367011, “Sterols from Thai Marine Sponge Petrosia (Strongylophora) sp. and Their Cytotoxicity” (Marine Drugs, 2017).

Columns and labels:
Type in all cases: cell-based
[1] = system: MOLT-3 (acute lymphoblastic leukemia); assay: Cytotoxicity, XTT assay, MOLT-3; settings: Homo sapiens; for IC50: mean ± S.D. (n = 3), XTT assay
Description: (§1) In our study, several compounds (1–4, 6–8, 10, and 12–16) were evaluated for their cytotoxicity using a panel of human cancer cell lines, including MOLT-3 (acute lymphoblastic leukemia), HepG2 (hepatocarcinoma), A549 (human lung cancer), HuCCA-1 (human chlolangiocarcinoma), HeLa (cervical carcinoma), and MDA-MB-231 (hormone-independent breast cancer) as well as a normal cell line, MRC-5 (normal human embryonic lung fibroblasts).
(§2) The cytotoxic activity toward a panel of mammalian cancer cell lines (HepG2, A549, HuCCA-1, HeLa, MDA-MB-231) were tested using the 3-(4,5-dimethylthiazol-2-yl)-2,5-diphenyltetrazolium bromide (MTT) assay, while the activity toward MOLT-3 cancer cell line was performed by the 2,3-bis-(2-methoxy-4-nitro-5-sulphenyl)-(2H)-tetrazolium-5-carboxanilide (XTT) assay. Etoposide and doxorubicin were used as positive controls (Table 4).

[2] = system: MRC-5 (normal human embryonic lung fibroblasts); assay: Cytotoxicity toward normal cell line MRC-5; settings: for IC50: MRC5, MRC-5 normal cell line, mean ± S.D. (n = 3)
Description: as §1

[3] = system: HuCCA-1 (human chlolangiocarcinoma); assay: Cytotoxicity, MTT assay, HuCCA-1; settings: for IC50: HuCC-A1, mean ± S.D. (n = 3), MTT assay
Description: as §1, §2

[4] = system: A549 (human lung cancer); assay: Cytotoxicity, MTT assay, A549; settings: for IC50: mean ± S.D. (n = 3), MTT assay
Description: as §1, §2

[5] = system: HepG2 (hepatocarcinoma); assay: Cytotoxicity, MTT assay, HepG2; settings: Homo sapiens; for IC50: HepG-2, mean ± S.D. (n = 3), MTT assay
Description: as §1, §2

[6] = system: MDA-MB-231 (hormone-independent breast cancer); assay: Cytotoxicity, MTT assay, MDA-MB-231; settings: Homo sapiens, mean ± S.D. (n = 3)
Description: as §1, §2

[7] = system: HeLa (cervical carcinoma); assay: Cytotoxicity, MTT assay, HeLa; settings: Homo sapiens, mean ± S.D. (n = 3)
Description: as §1, §2

SMILES	IC50 [1] [µM]	IC50 [2] [µM]	IC50 [3] [µM]	IC50 [4] [µM]	IC50 [5] [µM]	further results
CC(CCC(C)(O)C1CCC2C3C(O)CC4CC(O)CCC4(C)C3CC(O)C21C)C1CC1C (stereo not drawn) [Compound 1, 26,27-cyclo-24,27-dimethylcholestan-3α,7α,12β,20β-tetraol]	17.9 ± 0.26	40.1 ± 1.23	21.3 ± 1.84	20 ± 1.52	12.7 ± 1.67	
C[C@H](CC[C@](C)(O)[C@H]1CC[C@@]2(O)[C@@H]3CC[C@H]4C[C@H](O)CC[C@]4(C)[C@H]3C[C@@H](O)[C@]12C)[C@@H]1C[C@H]1C [Compound 2, 26,27-cyclo-24,27-dimethylcholestan-3α,12β,14,20β-tetraol]	32.4 ± 1.08	60.6 ± 12.8	37.9 ± 3.01	38.59 ± 0.24	44.8 ± 3.79	
C[C@H](CC[C@](C)(O)[C@H]1CCC2[C@@H]3[C@H](O)C=C4C[C@@H](O)CC[C@]4(C)[C@H]3C[C@@H](O)[C@@]21C)[C@@H]1C[C@H]1C (stereo partly drawn) [Compound 3, 26,27-cyclo-24,27-dimethylcholest-5-ene-3β,7α,12β,20β-tetraol]			47.5 ± 6.96		44.6 ± 9.76	inhibition at 27.17 µM ([1]; at 27.17 μM): 8%; inhibition at 54.35 µM ([2]; MRC5, MRC-5, at 54.35 μM): 24.7%; inhibition at 54.35 µM ([4]; at 54.35 μM): 9%
COC1(OC)CC[C@@]2(C)[C@@H](C[C@@H](O)[C@@H]3[C@@H]2C[C@@H](O)[C@@]2(C)[C@H]3CC[C@@H]2[C@@](C)(O)CC[C@@H](C)[C@@H]2C[C@H]2C)C1 [Compound 4, 26,27-cyclo-24,27-dimethylcholestan-3,3-dimethoxy-7α,12β,20β-triol]						inhibition at 12.35 µM ([1]; at 12.35 μM): 0%; inhibition at 24.7 µM ([2]; MRC5, MRC-5, at 24.70 μM): 5.45%; inhibition at 12.35 µM ([3]; HuCC-A1, at 12.35 μM): 0%; inhibition at 12.35 µM ([4]; at 12.35 μM): 2%; inhibition at 24.7 µM ([5]; HepG-2, at 24.70 μM): 20.3%
C[C@H](CC[C@](C)(O)[C@H]1CC[C@H]2[C@@H]3CC[C@H]4C[C@H](O)CC[C@]4(C)[C@H]3C[C@@H](O)[C@@]21C)[C@@H]1C[C@H]1C [Compound 6, aragusterol I]	20.1 ± 0.52	63.4 ± 8.3	37.06 ± 0.36	34.7 ± 17.7	54.9 ± 2.04	
C[C@H](CC[C@](C)(O)[C@H]1CC[C@H]2[C@@H]3CC[C@H]4CC(=O)CC[C@]4(C)[C@H]3C[C@@H](O)[C@@]21C)[C@H]1C[C@@H]1C [Compound 7, aragusterol B]	16.3 ± 18		25.1 ± 2.27	23.6 ± 2	26.5 ± 5.32	IC50 [6]: 27 ± 7.79 µM; IC50 [7]: 11.23 ± 0.05 µM
CC(CCC(C)(O)[C@H]1CC[C@H]2[C@@H]3[C@H](O)C[C@H]4CC(=O)CC[C@]4(C)[C@H]3C[C@@H](O)[C@]12C)C1CC1C (stereo partly drawn) [Compound 8, xestokerol B]		90.1 ± 6.88	103 ± 2.29	32.6 ± 3.64	18.2 ± 1.86	inhibition at 108.7 µM ([1]; at 108.70 μM): 43%
C[C@H](CC[C@@H](C)[C@H]1CC[C@H]2[C@@H]3C(=O)C=C4C[C@@H](O)CC[C@]4(C)[C@H]3CC[C@]12C)[C@@H]1C[C@H]1C [Compound 10, 7-oxopetrosterol]		44.8 ± 1.36		52.1 ± 3.35	49.8 ± 3.96	inhibition at 29.34 µM ([1]; at 29.34 μM): 2%; inhibition at 58.69 µM ([3]; HuCC-A1, at 58.69 μM): 44%
CC(C)CC=CC(C)(O)C1CCC2C3C(O)CC4CC(=O)CCC4(C)C3CC(O)C21C (stereo not drawn) [Compound 12, 7α,12β,20β-trihydroxycholesta-22E-en-3-one]	36.6 ± 1.11	76.9 ± 10.7	66.1 ± 0.9	54.3 ± 3.84	56.5 ± 2.15	
COC1(OC)CC[C@@]2(C)C(CC[C@H]3C4CC[C@H]([C@@](O)(CO)[C@H](O)C[C@@H](C)[C@@H]5C[C@H]5C)[C@@]4(C)[C@H](O)C[C@@H]32)C1 (stereo partly drawn) [Compound 13, 26,27-cyclo-24,27-dimethylcholestan-3,3-dimethoxy-12β,21,20α,22α-tetraol]	14.9 ± 0.25	37.7 ± 10.7	20.8 ± 2.32	17.9 ± 2.26	12.5 ± 0.84	
CC1CC1C(C)CC(O)C(O)(CO)[C@H]1CC[C@H]2[C@@H]3CC[C@H]4CC(=O)CC[C@]4(C)[C@H]3C[C@@H](O)[C@]12C (stereo partly drawn) [Compound 14, xestokerol A]	24.4 ± 3.11	65.9 ± 4.54	34.4 ± 1.83	23.8 ± 1.87	41.4 ± 3.24	
C[C@@H]1C[C@H]1[C@H](C)C[C@@H](O)[C@@]1([C@H]2CC[C@H]3[C@@H]4CC[C@H]5CC(=O)CC[C@]5(C)[C@H]4C[C@@H](O)[C@]23C)CO1 [Compound 15, aragusterol A]	12.8 ± 0.98		37.6 ± 1.4	37.93 ± 0.07	7.1 ± 4.76	IC50 [6]: 18 ± 5.74 µM; IC50 [7]: 6.11 ± 0.02 µM
COC1(OC)CC[C@@]2(C)C(CC[C@H]3C4CC[C@H]([C@]5([C@@H](O)C[C@@H](C)[C@@H]6C[C@H]6C)CO5)[C@@]4(C)[C@H](O)C[C@@H]32)C1 (stereo partly drawn) [Compound 16, aragusterolketal]	14.6 ± 0.36	49.6 ± 6.67	34.6 ± 3.85	29.1 ± 8.25	11.3 ± 9.29	
COc1cccc2c1C(=O)c1c(O)c3c(c(O)c1C2=O)C[C@@](O)(C(=O)CO)C[C@@H]3O[C@H]1C[C@H](N)[C@H](O)[C@H](C)O1 [Doxorubicin, reference compound]			2.24 ± 0.15	0.92 ± 0.06	0.55 ± 0.12	inhibition at 50 µM ([2]; MRC5, MRC-5, at 50.00 μM): 24.9%; IC50 [6]: 1.78 ± 0.54 µM; IC50 [7]: 0.17 ± 0.1 µM
COc1cc([C@@H]2c3cc4c(cc3[C@@H](O[C@@H]3O[C@@H]5CO[C@@H](C)O[C@H]5[C@H](O)[C@H]3O)[C@H]3COC(=O)[C@H]23)OCO4)cc(OC)c1O [Etoposide, reference compound]	0.07 ± 0.005				31.5 ± 15.6	
